Measured values taken from patent publication US20130217592A1, “ARRAYS AND METHODS COMPRISING M. SMITHII GENE PRODUCTS” (THE WASHINGTON UNIVERSITY, priority 2007, published 2013).

Legend:
[1] = system: Bacteroides thetaiotaomicron; test: Effect of statins on growth of B. thetaiotaomicron (FIG. 14); type: cell-based; details: statin concentration of 1 mM (FIG. 14)
[2] = system: M. smithii strains DSMZ 861 (PS), 2374 (F1), 2375 (ALI) and 11975 (B181); test: Statin susceptibility of M. smithii strains in the PHAT system, 96-well plates, growth by optical density at 600 nm (all four strains); type: cell-based, Methanobrevibacter smithii; details: preliminary results
Description: A system for culturing M. smithii in 96-well plate format was designed and constructed in the following manner (See FIG. 15). Three stainless steel paint canisters (Binks, 83S-210, 2 gallon size) were modified for incubation of plates at 37° C. in an oxygen-free gas mix of 20% CO2/80% H2 at a pressure of 30 psi, where all of these growth parameters can be monitored and recorded.
The canisters are heated using Electro-Flex Heat brand Pail Heaters controlled by a custom designed controller consisting of a 16A2120 temperature/process control (Love Controls), an RTD (resistance temperature detector) probe to measure internal tank temperature, and several safety features to prevent overheating or burns.
The system is pressurized with oxygen-free gas that has flowed through a custom-built oxygen scrub. Commercially available gas mixes used for culturing M. smithii contain trace levels of oxygen that would kill the organism: thus, the gas mixture must be passed through an oxygen scrub. This scrub consists of a glass tube filled with copper mesh that is heated to 350° C. with heating tape (HTS/Amptek Duo-Tape), controlled by a benchtop power controller (HTS/Amptek BT-Z). The oxygen scrub is covered with insulating tape and secured behind a heat resistant polyetherimide case. Pressure in each tank is measured and recorded with a digital manometer (LEO record, Omni Instruments).
The system is housed inside an anaerobic chamber (COY laboratories) to allow inspection and manipulation of cultures and plates without exposing M. smithii to oxygen. Each tank can house 30 standard volume 96-well plates, which can be analyzed inside the COY anaerobic chamber with a microplate reader (BioRad) that monitors growth by measuring optical density.
1.5 μl of the stock solutions were added to wells in 96-well plates and transferred to the COY anaerobic chamber where they were kept for at least 24 hours to become anaerobic. 150 microliters of actively growing Methanobrevibacter smithii cultures were then added to each well (excluding medium+drug blanks) to bring the drug concentrations to 1 mM, 100 μM and 10 μM, respectively. The plates were incubated in the newly developed pressurized heated anaerobic tank system in a 4:1 mixture of oxygen-scrubbed H2 and CO2 at a pressure of 30 psi. Cultures grown in 1% ethanol, methanol and DMSO were used as controls. Growth was measured by determining optical density at 600 nm using the BioRad microplate reader (model 680).
Each condition was tested in triplicate with the average measurement plotted.

Row | Compound | effect on the growth of Bacteroides thetaiotaomicron [1] | inhibition of growth of M. smithii strains ([2]; 1 millimolar) | inhibition of growth of M. smithii strains ([2]; 100 micromolar)
1 | CC(C)c1c(C(=O)Nc2ccccc2)c(-c2ccccc2)c(-c2ccc(F)cc2)n1CC[C@@H](O)C[C@@H](O)CC(=O)O [atorvastatin] | None of these three statins had any affect on the growth | inhibit all strains tested | inhibit all strains
2 | CC(C)c1nc(N(C)S(C)(=O)=O)nc(-c2ccc(F)cc2)c1/C=C/[C@@H](O)C[C@@H](O)CC(=O)O [rosuvastatin] | None of these three statins had any affect on the growth | inhibit all strains tested | inhibit all strains
